From patent publication US11236095B2 (priority 2007, dated 2022)

Assay: Human dose prediction (human PK parameter estimation)
Conditions: plasma, read-out: half-life, estimated (human) (converted)

- half-life: ~6 h
SMILES: NC1(C(=O)N[C@@H](CCO)c2ccc(Cl)cc2)CCN(c2ncnc3[nH]ccc23)CC1 [Example 9, (S)-4-amino-N-(1-(4-chlorophenyl)-3-hydroxypropyl)-1-(7H-pyrrolo[2,3-d]pyrimidin-4-yl)piperidine-4-carboxamide]
